# From PMC8550792, “Evolution of kinase polypharmacology across HSP90 drug discovery” (Cell Chemical Biology, 2021)
# Tests used:
# 382 unique human kinases [1] = molecular target: T1, 382 unique human kinases (Homo sapiens, UniProt P42345); assay: biochemical; type: biochemical; settings: mTOR/FRAP1; compound at 10 uM; duplicate values; read-out: % Enzyme Activity (relative to DMSO controls)
# T1 construct: purchased Reaction Biology (HotSpot contract assay)
# DDR1 = DDR1 (Homo sapiens, UniProt Q08345); assay: NanoBRET intracellular target engagement
# ABL2 = ABL2 (Homo sapiens, UniProt P42684); assay: NanoBRET intracellular target engagement
# HSP90B1 = tested on: HSP90B1; set-up: method as in ChEMBL23 (accessed: 23/08/2018); settings: average of reported values; ref ChEMBL23 (accessed: 23/08/2018); cited from earlier work
# [2] = human, in vivo; cited from earlier work
# 382 unique human kinases [3] = molecular target: T2, 382 unique human kinases (Homo sapiens, UniProt P04626, V777L); assay: biochemical; type: biochemical; settings: ERBB2 (V777L), compound at 10 uM, duplicate values
# T2 construct: purchased Reaction Biology (HotSpot contract assay)
# 382 unique human kinases [4] = molecular target: T3, 382 unique human kinases (Homo sapiens, UniProt P07947, T348I); assay: biochemical; type: biochemical; settings: YES1 (T348I), compound at 10 uM, duplicate values
# T3 construct: purchased Reaction Biology (HotSpot contract assay)
# 382 unique human kinases [5] = molecular target: T4, 382 unique human kinases (Homo sapiens, UniProt P57078); assay: biochemical; type: biochemical; settings: kinase RIPK4, compound 10 uM
# T4 construct: purchased Reaction Biology (HotSpot contract assay)
# 382 unique human kinases [6] = molecular target: T5, 382 unique human kinases (Homo sapiens, UniProt P15056, L597V); assay: biochemical; type: biochemical; settings: BRAF (L597V), compound at 10 uM, duplicate values
# T5 construct: purchased Reaction Biology (HotSpot contract assay)
# 382 unique human kinases [7] = molecular target: T6, 382 unique human kinases (Homo sapiens, UniProt P10721, D816I); assay: biochemical; type: biochemical; settings: c-Kit (D816I), 10 uM
# T6 construct: purchased Reaction Biology (HotSpot contract assay)
# 382 unique human kinases [8] = molecular target: T7, 382 unique human kinases (Homo sapiens, UniProt O14578); assay: biochemical; type: biochemical; settings: STK21/CIT, 10 uM
# T7 construct: purchased Reaction Biology (HotSpot contract assay)
# 382 unique human kinases [9] = molecular target: T8, 382 unique human kinases (Homo sapiens, UniProt P00533, C797S/L858R/T790M); assay: biochemical; type: biochemical; settings: EGFR (T790M/C797S/L858R), compound at 10 uM, duplicate values
# T8 construct: purchased Reaction Biology (HotSpot contract assay)
# FYN = molecular target: T9, FYN (Homo sapiens, UniProt P06241); assay: HotSpot in vitro kinase radiometric assay; type: biochemical; settings: for inhibition at 10 µM: read-out: % inhibition at 10 uM: FYN, Fig 6C median ± standard deviation (n = 2)
# T9 construct: purchased Reaction Biology (HotSpot contract assay)
# 382 unique human kinases [10] = molecular target: T10, 382 unique human kinases (Homo sapiens, UniProt P19784); assay: biochemical; type: biochemical; settings: CK2a2, 10 uM
# T10 construct: purchased Reaction Biology (HotSpot contract assay)
# 382 unique human kinases [11] = molecular target: T11, 382 unique human kinases (Homo sapiens, UniProt P04626); assay: biochemical; type: biochemical; settings: ERBB2/HER2, 10 uM
# T11 construct: purchased Reaction Biology (HotSpot contract assay)
# 382 unique human kinases [12] = molecular target: T12, 382 unique human kinases (Homo sapiens, UniProt P04626, D769H); assay: biochemical; type: biochemical; settings: ERBB2 (D769H), 10 uM
# T12 construct: purchased Reaction Biology (HotSpot contract assay)
# 382 unique human kinases [13] = molecular target: T13, 382 unique human kinases (Homo sapiens, UniProt P00533, C797A); assay: biochemical; type: biochemical; settings: EGFR (C797A), 10 uM
# T13 construct: purchased Reaction Biology (HotSpot contract assay)
# 382 unique human kinases [14] = molecular target: T14, 382 unique human kinases (Homo sapiens, UniProt P15056, V600K); assay: biochemical; type: biochemical; settings: BRAF (V600K), 10 uM
# T14 construct: purchased Reaction Biology (HotSpot contract assay)
# 382 unique human kinases [15] = molecular target: T15, 382 unique human kinases (Homo sapiens, UniProt P04626, D769Y); assay: biochemical; type: biochemical; settings: ERBB2 (D769Y), 10 uM
# T15 construct: purchased Reaction Biology (HotSpot contract assay)
# 382 unique human kinases [16] = molecular target: T16, 382 unique human kinases (Homo sapiens, UniProt P15056, G469A); assay: biochemical; type: biochemical; settings: BRAF (G469A), 10 uM
# T16 construct: purchased Reaction Biology (HotSpot contract assay)
# 382 unique human kinases [17] = molecular target: T17, 382 unique human kinases (Homo sapiens, UniProt Q9BWU1); assay: biochemical; type: biochemical; settings: CDK19/cyclin C, 10 uM
# T17 construct: purchased Reaction Biology (HotSpot contract assay)
# 382 unique human kinases [18] = molecular target: T18, 382 unique human kinases (Homo sapiens, UniProt Q96S53); assay: biochemical; type: biochemical; settings: TESK2, 10 uM
# T18 construct: purchased Reaction Biology (HotSpot contract assay)
# 382 unique human kinases [19] = molecular target: T19, 382 unique human kinases (Homo sapiens, UniProt P00519, F317L); assay: biochemical; type: biochemical; settings: ABL1 (F317L), [ATP] 5 µM, compound 10 uM
# T19 construct: purchased Reaction Biology (HotSpot contract assay)
# 382 unique human kinases [20] = molecular target: T20, 382 unique human kinases (Homo sapiens, UniProt P00519, V299L); assay: biochemical; type: biochemical; settings: ABL1 (V299L), [ATP] 5 µM, compound 10 uM
# T20 construct: purchased Reaction Biology (HotSpot contract assay)
# 382 unique human kinases [21] = molecular target: T21, 382 unique human kinases (Homo sapiens, UniProt P17948); assay: biochemical; type: biochemical; settings: FLT1/VEGFR1, [ATP] 2.5 µM, compound 10 uM
# T21 construct: purchased Reaction Biology (HotSpot contract assay)
# 382 unique human kinases [22] = molecular target: T22, 382 unique human kinases (Homo sapiens, UniProt P15056, G464V); assay: biochemical; type: biochemical; settings: BRAF (G464V), 10 uM
# T22 construct: purchased Reaction Biology (HotSpot contract assay)
# 382 unique human kinases [23] = molecular target: T23, 382 unique human kinases (Homo sapiens, UniProt P15056, V600D); assay: biochemical; type: biochemical; settings: BRAF (V600D), 10 uM
# T23 construct: purchased Reaction Biology (HotSpot contract assay)
# [24] = read-out: % Enzyme Activity (relative to DMSO controls)
# T9 sequence (P06241 whole entry): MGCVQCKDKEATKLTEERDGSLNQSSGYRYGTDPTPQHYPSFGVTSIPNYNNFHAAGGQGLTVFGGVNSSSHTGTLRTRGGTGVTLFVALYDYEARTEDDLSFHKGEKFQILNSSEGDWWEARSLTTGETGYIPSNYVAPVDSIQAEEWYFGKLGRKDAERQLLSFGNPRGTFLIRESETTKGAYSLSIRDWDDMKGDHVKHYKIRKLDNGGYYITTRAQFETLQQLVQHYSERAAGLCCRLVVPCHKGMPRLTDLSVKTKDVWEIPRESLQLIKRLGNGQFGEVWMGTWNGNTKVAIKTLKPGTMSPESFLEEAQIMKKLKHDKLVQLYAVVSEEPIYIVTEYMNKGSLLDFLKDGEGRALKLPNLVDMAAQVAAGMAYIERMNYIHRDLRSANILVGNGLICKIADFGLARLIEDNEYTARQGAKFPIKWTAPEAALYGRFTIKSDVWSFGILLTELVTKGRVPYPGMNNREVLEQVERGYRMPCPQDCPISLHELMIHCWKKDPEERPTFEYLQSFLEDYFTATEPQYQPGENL
# T16 sequence (P15056 whole entry G469A): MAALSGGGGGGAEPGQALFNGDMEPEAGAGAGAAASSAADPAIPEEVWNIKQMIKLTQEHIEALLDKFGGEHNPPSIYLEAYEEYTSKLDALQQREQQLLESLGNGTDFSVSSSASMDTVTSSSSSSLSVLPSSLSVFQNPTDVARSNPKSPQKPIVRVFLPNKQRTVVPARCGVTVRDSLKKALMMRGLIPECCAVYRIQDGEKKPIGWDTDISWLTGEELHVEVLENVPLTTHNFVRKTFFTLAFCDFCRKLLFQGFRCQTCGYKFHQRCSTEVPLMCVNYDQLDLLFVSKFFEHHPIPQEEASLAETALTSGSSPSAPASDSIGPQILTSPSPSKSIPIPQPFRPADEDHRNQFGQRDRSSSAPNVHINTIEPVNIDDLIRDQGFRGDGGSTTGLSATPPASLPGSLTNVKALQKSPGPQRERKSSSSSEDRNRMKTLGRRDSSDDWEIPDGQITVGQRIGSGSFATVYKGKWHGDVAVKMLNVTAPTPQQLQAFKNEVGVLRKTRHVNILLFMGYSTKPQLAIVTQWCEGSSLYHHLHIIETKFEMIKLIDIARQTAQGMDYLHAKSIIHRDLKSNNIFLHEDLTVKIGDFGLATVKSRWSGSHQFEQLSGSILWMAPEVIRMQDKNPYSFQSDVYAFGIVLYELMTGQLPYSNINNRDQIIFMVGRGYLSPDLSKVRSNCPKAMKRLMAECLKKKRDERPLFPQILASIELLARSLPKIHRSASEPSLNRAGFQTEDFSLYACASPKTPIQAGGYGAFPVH
# T23 sequence (P15056 whole entry V600D): as the sequence (P15056 whole entry G469A) above, with A469G, V600D counted along it
# Sequence of ABL2 (P42684 whole entry): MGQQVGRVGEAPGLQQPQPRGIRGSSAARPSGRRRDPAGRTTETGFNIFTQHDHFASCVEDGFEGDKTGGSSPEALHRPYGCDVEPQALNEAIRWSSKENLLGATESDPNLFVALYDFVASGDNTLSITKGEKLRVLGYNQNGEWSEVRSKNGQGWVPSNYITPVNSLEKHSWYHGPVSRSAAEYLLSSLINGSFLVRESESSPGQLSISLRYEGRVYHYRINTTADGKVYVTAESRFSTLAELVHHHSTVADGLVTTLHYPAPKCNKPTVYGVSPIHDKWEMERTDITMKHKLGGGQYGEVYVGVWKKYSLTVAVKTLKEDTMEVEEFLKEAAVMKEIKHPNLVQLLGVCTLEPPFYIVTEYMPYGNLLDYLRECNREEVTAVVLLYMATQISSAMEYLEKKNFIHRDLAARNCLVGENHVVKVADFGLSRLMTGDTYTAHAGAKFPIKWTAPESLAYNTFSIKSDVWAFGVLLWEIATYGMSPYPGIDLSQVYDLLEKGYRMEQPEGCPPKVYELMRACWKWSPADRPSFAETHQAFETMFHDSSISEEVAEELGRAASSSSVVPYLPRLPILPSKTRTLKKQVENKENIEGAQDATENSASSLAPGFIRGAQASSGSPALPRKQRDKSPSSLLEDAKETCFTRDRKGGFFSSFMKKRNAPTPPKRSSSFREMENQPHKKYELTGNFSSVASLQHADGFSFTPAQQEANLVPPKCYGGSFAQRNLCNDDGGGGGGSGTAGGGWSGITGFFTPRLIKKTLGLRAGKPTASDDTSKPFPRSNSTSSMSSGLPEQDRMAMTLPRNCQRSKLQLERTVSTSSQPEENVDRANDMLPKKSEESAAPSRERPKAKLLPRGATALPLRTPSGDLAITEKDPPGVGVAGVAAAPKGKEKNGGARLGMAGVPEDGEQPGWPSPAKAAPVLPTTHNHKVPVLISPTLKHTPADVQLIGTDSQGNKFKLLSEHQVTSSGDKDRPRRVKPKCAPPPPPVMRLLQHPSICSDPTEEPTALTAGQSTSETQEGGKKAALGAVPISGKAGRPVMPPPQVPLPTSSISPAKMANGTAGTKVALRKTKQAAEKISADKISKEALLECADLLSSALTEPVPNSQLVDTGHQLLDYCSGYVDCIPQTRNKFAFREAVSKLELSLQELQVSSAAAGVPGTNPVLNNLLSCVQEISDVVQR
# T10 sequence (P19784 whole entry): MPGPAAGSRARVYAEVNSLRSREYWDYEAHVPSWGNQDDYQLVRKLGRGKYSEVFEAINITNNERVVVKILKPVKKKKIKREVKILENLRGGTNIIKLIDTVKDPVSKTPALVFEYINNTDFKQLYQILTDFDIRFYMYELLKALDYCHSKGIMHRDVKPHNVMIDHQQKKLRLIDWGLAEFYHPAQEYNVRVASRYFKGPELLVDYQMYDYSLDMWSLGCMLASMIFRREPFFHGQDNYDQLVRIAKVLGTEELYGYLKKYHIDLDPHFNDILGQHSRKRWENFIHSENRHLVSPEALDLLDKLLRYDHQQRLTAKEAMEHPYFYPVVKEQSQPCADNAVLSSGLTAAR
# T17 sequence (Q9BWU1 whole entry): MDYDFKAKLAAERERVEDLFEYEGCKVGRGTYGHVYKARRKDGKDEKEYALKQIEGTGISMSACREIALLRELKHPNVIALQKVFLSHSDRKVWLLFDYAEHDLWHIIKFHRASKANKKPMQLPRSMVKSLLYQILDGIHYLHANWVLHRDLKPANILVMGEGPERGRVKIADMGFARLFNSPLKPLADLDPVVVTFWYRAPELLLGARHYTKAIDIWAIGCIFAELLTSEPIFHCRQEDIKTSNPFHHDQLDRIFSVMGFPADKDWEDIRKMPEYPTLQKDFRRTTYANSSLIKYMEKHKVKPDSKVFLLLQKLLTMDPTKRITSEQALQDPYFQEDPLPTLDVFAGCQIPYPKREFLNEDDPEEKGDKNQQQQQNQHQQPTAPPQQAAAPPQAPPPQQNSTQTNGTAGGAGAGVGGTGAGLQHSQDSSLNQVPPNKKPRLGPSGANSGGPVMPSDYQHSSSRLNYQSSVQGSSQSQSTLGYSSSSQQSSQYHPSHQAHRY
# T21 sequence (P17948 27-1338): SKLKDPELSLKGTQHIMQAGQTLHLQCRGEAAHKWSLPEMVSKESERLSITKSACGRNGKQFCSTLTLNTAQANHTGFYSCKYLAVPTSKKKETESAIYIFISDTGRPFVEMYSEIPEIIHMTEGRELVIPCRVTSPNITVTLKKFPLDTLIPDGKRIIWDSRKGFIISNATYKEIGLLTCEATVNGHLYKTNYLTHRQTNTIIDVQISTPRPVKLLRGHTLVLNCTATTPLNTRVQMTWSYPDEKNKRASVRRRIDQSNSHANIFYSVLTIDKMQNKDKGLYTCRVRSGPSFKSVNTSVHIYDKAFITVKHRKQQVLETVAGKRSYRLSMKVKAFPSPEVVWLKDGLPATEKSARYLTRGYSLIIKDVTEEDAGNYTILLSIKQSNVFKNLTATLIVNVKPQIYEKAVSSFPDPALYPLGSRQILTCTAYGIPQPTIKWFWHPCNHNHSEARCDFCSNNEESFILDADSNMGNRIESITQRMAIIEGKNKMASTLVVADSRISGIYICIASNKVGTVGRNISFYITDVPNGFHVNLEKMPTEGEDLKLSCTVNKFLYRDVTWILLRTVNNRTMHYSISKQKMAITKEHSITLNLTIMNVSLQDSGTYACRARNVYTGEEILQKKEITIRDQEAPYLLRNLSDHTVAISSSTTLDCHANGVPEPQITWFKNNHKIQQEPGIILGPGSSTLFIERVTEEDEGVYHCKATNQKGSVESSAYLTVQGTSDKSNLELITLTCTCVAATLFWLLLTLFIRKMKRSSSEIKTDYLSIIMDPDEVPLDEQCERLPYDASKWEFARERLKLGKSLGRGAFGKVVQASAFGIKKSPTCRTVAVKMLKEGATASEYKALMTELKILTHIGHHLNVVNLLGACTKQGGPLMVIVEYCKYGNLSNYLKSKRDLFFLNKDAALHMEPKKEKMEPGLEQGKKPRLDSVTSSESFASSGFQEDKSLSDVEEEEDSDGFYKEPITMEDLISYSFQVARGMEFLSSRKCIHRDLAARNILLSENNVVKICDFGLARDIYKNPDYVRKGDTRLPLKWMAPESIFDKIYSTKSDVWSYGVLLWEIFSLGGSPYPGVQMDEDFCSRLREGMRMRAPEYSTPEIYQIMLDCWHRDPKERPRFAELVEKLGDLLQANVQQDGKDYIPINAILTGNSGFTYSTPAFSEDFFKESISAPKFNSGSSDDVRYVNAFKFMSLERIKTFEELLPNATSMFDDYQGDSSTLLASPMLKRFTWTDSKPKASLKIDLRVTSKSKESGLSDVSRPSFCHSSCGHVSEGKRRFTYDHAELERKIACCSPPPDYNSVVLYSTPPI
# T14 sequence (P15056 whole entry V600K): as the sequence (P15056 whole entry G469A) above, with A469G, V600K counted along it
# T22 sequence (P15056 whole entry G464V): as the sequence (P15056 whole entry G469A) above, with G464V, A469G counted along it
# T5 sequence (P15056 whole entry L597V): as the sequence (P15056 whole entry G469A) above, with A469G, L597V counted along it
structure (smiles),measurement,setting,value
CC(C)c1cc(-c2n[nH]c(=O)n2-c2ccc3c(ccn3C)c2)c(O)cc1O [Ganetespib (STA9090)],remaining activity at 10 µM,382 unique human kinases [1],107%
CC(C)c1cc(-c2n[nH]c(=O)n2-c2ccc3c(ccn3C)c2)c(O)cc1O [Ganetespib],EC50,DDR1,75.5 µM
same,remaining activity at 100 µM,"DDR1; HEK293, read-out: %Normalized Bret Response, DDR1 NanoBRET, HEK293, Drug Conc. 0.0001 M",37.5%
same,EC50,ABL2,21.1 µM
same,remaining activity at 100 µM,"ABL2; HEK293, read-out: %Normalized Bret Response, ABL2 NanoBRET, HEK293, Drug Conc. 0.0001 M",22.6%
same,"pActivity, HSP90B1",HSP90B1,8
same,"Cmax,total",[2],6 to 12 µM
CCNC(=O)c1noc(-c2cc(C(C)C)c(O)cc2O)c1-c1ccc(CN2CCOCC2)cc1 [Luminespib (AUY-922)],% Enzyme Activity (relative to DMSO controls),382 unique human kinases [3],104.18%
same,remaining activity at 10 µM,382 unique human kinases [3]; [24],105%
same,% Enzyme Activity (relative to DMSO controls),382 unique human kinases [4],101.23%
same,remaining activity at 10 µM,382 unique human kinases [4]; [24],103%
same,% Enzyme Activity (relative to DMSO controls),382 unique human kinases [5],85.29%
same,remaining activity at 10 µM,382 unique human kinases [5]; [24],87.2%
same,% Enzyme Activity (relative to DMSO controls),382 unique human kinases [6],104.65%
same,remaining activity at 10 µM,382 unique human kinases [6]; [24],107%
same,% Enzyme Activity (relative to DMSO controls),382 unique human kinases [7],72.16%
same,remaining activity at 10 µM,382 unique human kinases [7]; [24],73.3%
same,% Enzyme Activity (relative to DMSO controls),382 unique human kinases [8],76.27%
same,remaining activity at 10 µM,382 unique human kinases [8]; [24],78.4%
same,% Enzyme Activity (relative to DMSO controls),382 unique human kinases [9],100.18%
same,remaining activity at 10 µM,382 unique human kinases [9]; [24],100%
CCNC(=O)c1noc(-c2cc(C(C)C)c(O)cc2O)c1-c1ccc(CN2CCOCC2)cc1 [Luminespib],inhibition at 10 µM,FYN,35%
same,% Enzyme Activity (relative to DMSO controls),382 unique human kinases [10],108.66%
same,remaining activity at 10 µM,382 unique human kinases [10]; [24],111%
same,% Enzyme Activity (relative to DMSO controls),382 unique human kinases [11],97.41%
same,remaining activity at 10 µM,382 unique human kinases [11]; [24],98.2%
same,% Enzyme Activity (relative to DMSO controls),382 unique human kinases [12],99.65%
same,remaining activity at 10 µM,382 unique human kinases [12]; [24],102%
same,% Enzyme Activity (relative to DMSO controls),382 unique human kinases [13],99.37%
same,remaining activity at 10 µM,382 unique human kinases [13]; [24],102%
same,% Enzyme Activity (relative to DMSO controls),382 unique human kinases [14],98.47%
same,remaining activity at 10 µM,382 unique human kinases [14]; [24],99.2%
same,% Enzyme Activity (relative to DMSO controls),382 unique human kinases [15],99.76%
same,remaining activity at 10 µM,382 unique human kinases [15]; [24],100%
same,% Enzyme Activity (relative to DMSO controls),382 unique human kinases [16],98.83%
same,remaining activity at 10 µM,382 unique human kinases [16]; [24],99.7%
same,% Enzyme Activity (relative to DMSO controls),382 unique human kinases [17],95.24%
same,remaining activity at 10 µM,382 unique human kinases [17]; [24],96.2%
same,% Enzyme Activity (relative to DMSO controls),382 unique human kinases [18],98.62%
same,remaining activity at 10 µM,382 unique human kinases [18]; [24],100%
same,% Enzyme Activity (relative to DMSO controls),382 unique human kinases [19],5.92%
same,remaining activity at 10 µM,382 unique human kinases [19]; [24],6.23%
same,% Enzyme Activity (relative to DMSO controls),382 unique human kinases [20],31.43%
same,remaining activity at 10 µM,382 unique human kinases [20]; [24],31.8%
same,% Enzyme Activity (relative to DMSO controls),382 unique human kinases [21],90.88%
same,remaining activity at 10 µM,382 unique human kinases [21]; [24],91.3%
same,% Enzyme Activity (relative to DMSO controls),382 unique human kinases [22],97.60%
same,remaining activity at 10 µM,382 unique human kinases [22]; [24],97.9%
same,% Enzyme Activity (relative to DMSO controls),382 unique human kinases [23],98.35%
same,remaining activity at 10 µM,382 unique human kinases [23]; [24],100%
CCNC(=O)c1noc(-c2cc(Cl)c(O)cc2O)c1-c1ccc(OC)cc1 [VER-50589],% Enzyme Activity (relative to DMSO controls),"FYN; FYN, 10uM, ATP 30 uM, Data 1, Data 2",116.15%
same,remaining activity at 10 µM,"FYN; FYN, 10uM, ATP 30 uM, Data 1, Data 2, read-out: % Enzyme Activity (relative to DMSO controls)",109%
same,inhibition at 10 µM,FYN,-13 ± 5%
